This passage reports IC50 results from patent US9156877B2, “17-hydroxy-17-pentafluorethyl-estra-4,9(10)-dien-11-benzylidene derivatives, methods for the production thereof and use thereof for treating diseases” (Bayer Intellectual Property GmbH, priority 2009, dated 2015).

In assay [1] the target is T1, human progesterone receptor B (Homo sapiens, UniProt P06401).
T1 construct: expressed in transfected cells; host or cells: SK-N-MC human neuroblastoma cells, stably transfected with pRChPR-B-neo and pMMTV-LUC
T1 sequence (P06401 1-933): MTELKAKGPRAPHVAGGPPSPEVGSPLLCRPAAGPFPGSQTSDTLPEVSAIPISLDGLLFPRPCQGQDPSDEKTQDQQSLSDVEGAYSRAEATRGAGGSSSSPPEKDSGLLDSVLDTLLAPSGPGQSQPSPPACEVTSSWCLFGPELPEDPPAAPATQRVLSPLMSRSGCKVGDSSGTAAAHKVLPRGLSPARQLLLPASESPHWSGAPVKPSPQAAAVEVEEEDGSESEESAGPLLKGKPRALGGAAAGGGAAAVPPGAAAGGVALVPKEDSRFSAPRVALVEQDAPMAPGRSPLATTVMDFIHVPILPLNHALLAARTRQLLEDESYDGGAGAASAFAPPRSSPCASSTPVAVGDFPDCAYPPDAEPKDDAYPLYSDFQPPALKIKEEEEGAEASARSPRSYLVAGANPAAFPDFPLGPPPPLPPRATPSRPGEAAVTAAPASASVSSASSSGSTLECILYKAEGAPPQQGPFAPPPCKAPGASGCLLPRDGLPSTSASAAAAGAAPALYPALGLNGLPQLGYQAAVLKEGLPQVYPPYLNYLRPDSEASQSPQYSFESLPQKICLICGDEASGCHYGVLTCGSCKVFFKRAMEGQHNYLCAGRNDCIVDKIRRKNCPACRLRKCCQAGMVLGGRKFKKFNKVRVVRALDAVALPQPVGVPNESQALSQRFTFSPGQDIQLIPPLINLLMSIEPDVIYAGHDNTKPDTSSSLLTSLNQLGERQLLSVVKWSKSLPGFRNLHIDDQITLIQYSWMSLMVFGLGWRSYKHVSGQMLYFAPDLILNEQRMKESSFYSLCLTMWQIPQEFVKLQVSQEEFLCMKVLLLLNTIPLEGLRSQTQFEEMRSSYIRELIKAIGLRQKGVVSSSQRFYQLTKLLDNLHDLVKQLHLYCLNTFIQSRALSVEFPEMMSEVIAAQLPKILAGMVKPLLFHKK
The assay is described as follows: Progesterone receptor-antagonistic action in stably transfected SK-N-MC cells with MMTV-LUC reporter (PR-B). It counts as cell-based. To be noted: antagonistic potency against 0.1 nmol/l promegestone, 24 hours, luciferase. As to the method: (§1) Determination of Progesterone Receptor-Antagonistic Action in Stable Transfectants of Human Neuroblastoma Cells (SK-N-MC Cells) with the Human Progesterone A or Progesterone B Receptor and an MN-LUC Reporter Construct
(§2) SK-N-MC cells (human neuroblastoma cells) which have been stably transfected with plasmids expressing the human progesterone receptor B (pRChPR-B-neo) or the human progesterone receptor A (pRChPR-A-neo) and a reporter construct (pMMTV-LUC) were incubated for 24 hours either in the absence (negative control) or in the presence of ascending amounts of the particular test compound (0.01 nmol/l, 0.1 nmol/l, 1 nmol/l, 10 nmol/l, 100 nmol/l and […]), in order to determine the agonistic efficacy. As a positive control of the reporter gene induction, the cells were treated with the synthetic gestagen promegestone (0.01 nmol/l, 0.1 nmol/l, 1 nmol/l, 10 nmol/l, 100 nmol/l and […]). To determine the antagonistic activity, the cells were treated with 0.1 nmol/l promegestone and additionally with ascending amounts of the particular test compound (0.01 nmol/l, 0.1 nmol/l, 1 nmol/l, 10 nmol/l, 100 nmol/l and […]). The activity of the reporter gene LUC (LUC=luciferase) was determined in the cell lysates and measured as RLU (relative light units). All measurements are reported as % efficacy and as EC50 and IC50 concentrations.

Assay [2] has as its target T2, human progesterone receptor A (Homo sapiens, UniProt P06401).
T2 construct: expressed in transfected cells; host or cells: SK-N-MC human neuroblastoma cells, stably transfected with pRChPR-A-neo and pMMTV-LUC
T2 sequence (P06401 1-769 isoform P06401-2): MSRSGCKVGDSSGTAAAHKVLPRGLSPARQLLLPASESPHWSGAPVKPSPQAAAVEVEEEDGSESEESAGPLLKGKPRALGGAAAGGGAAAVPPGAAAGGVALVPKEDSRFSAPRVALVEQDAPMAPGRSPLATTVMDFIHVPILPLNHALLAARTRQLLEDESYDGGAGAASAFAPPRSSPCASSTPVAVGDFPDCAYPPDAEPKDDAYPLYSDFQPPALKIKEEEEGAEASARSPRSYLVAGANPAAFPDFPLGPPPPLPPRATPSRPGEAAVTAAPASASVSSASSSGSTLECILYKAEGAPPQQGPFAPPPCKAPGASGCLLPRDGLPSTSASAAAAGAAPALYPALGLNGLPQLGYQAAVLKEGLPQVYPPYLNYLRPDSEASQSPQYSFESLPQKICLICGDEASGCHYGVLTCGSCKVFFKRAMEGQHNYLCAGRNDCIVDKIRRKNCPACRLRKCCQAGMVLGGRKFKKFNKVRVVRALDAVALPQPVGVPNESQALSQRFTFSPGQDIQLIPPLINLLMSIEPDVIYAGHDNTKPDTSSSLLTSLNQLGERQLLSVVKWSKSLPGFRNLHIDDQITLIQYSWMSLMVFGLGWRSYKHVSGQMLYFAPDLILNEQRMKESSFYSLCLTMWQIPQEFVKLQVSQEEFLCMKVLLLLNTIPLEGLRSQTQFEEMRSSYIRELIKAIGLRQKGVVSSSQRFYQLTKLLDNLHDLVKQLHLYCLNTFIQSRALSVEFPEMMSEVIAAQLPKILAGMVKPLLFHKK
Description: Progesterone receptor-antagonistic action in stably transfected SK-N-MC cells with MMTV-LUC reporter (PR-A). It counts as cell-based. To be noted: antagonistic potency against 0.1 nmol/l promegestone, 24 hours, luciferase. How it is done: as §1, §2

The structures appear in SMILES notation. pIC50: −log10 of the molar value.

As a reminder, the pIC50 is the IC50 on a negative log10 scale, so that one unit is a factor of ten. Read a high pIC50 as a small IC50. On to `COC(=O)c1cccc(/C=C/c2ccc([C@H]3C[C@@]4(C)[C@@H](CC[C@@]4(O)C(F)(F)C(F)(F)F)[C@@H]4CCC5=CC(=O)CCC5=C43)cc2)c1` [Example 30, 3-{(E)-2-[4-((8S,11R,13S,14S,17S)-17-hydroxy-13-methyl-3-oxo-17-pentafluoroethyl-2,3,6,7,8,11,12,13,14,15,16,17-dodecahydro-1H-cyclopenta[a]phenanthren-11-yl)phenyl]vinyl}benzoic acid methyl ester], for which the pIC50 in assay [1] is 10.10; in assay [2], 10.05.
`COC(=O)c1ccc(/C=C/c2ccc([C@H]3C[C@@]4(C)[C@@H](CC[C@@]4(O)C(F)(F)C(F)(F)F)[C@@H]4CCC5=CC(=O)CCC5=C43)cc2)cc1` [Example 31, 4-{(E)-2-[4-((8S,11R,13S,14S,17S)-17-hydroxy-13-methyl-3-oxo-17-pentafluoroethyl-2,3,6,7,8,11,12,13,14,15,16,17-dodecahydro-1H-cyclopenta[a]phenanthren-11-yl)phenyl]vinyl}benzoic acid methyl ester]: the results for the pIC50 in assay [1] and in assay [2] were 10.00 and 10.05, respectively.
For `C[C@]12C[C@H](c3ccc(/C=C/c4ccc(S(C)(=O)=O)cc4)cc3)C3=C4CCC(=O)C=C4CC[C@H]3[C@@H]1CC[C@@]2(O)C(F)(F)C(F)(F)F` [Example 32, (8S,11R,13S,14S,17S)-17-hydroxy-11-{4-[(E)-2-(4-methanesulphonylphenyl)vinyl]phenyl}-13-methyl-17-pentafluoroethyl-1,2,6,7,8,11,12,13,14,15,16,17-dodecahydrocyclopenta[a]phenanthren-3-one], the pIC50 in assay [1] and in assay [2] was 11.00 throughout.
Turning to `CSc1ccc(/C=C/c2ccc([C@H]3C[C@@]4(C)[C@@H](CC[C@@]4(O)C(F)(F)C(F)(F)F)[C@@H]4CCC5=CC(=O)CCC5=C43)cc2)cc1` [Example 33, (8S,11R,13S,14S,17S)-17-hydroxy-13-methyl-11-{4-[(E)-2-(4-methylsulphanylphenyl)vinyl]phenyl}-17-pentafluoroethyl-1,2,6,7,8,11,12,13,14,15,16,17-dodecahydrocyclopenta[a]phenanthren-3-one], the pIC50 in assay [1] is 9.10; in assay [2] it was 10.00.
With `C[C@]12C[C@H](c3ccc(/C=N/OCC(=O)O)cc3)C3=C4CCC(=O)C=C4CC[C@H]3[C@@H]1CC[C@@]2(O)C(F)(F)C(F)(F)F` [Example 34, [1-[4-((8S,11R,13S,14S,17S)-17-hydroxy-13-methyl-3-oxo-17-pentafluoroethyl-2,3,6,7,8,11,12,13,14,15,16,17-dodecahydro-1H-cyclopenta[a]phenanthren-11-yl)phenyl]meth-(E)-ylideneaminooxy]acetic acid], the pIC50 in assay [1] is 8.55; in assay [2], 8.41.
For the compound `C[C@]12C[C@H](c3ccc(C=NOCc4ccccc4)cc3)C3=C4CCC(=O)C=C4CC[C@H]3[C@@H]1CC[C@@]2(O)C(F)(F)C(F)(F)F` [Example 35, 4-((8S,11R,13S,14S,17S)-17-hydroxy-13-methyl-3-oxo-17-pentafluoroethyl-2,3,6,7,8,11,12,13,14,15,16,17-dodecahydro-1H-cyclopenta[a]phenanthren-11-yl)benzaldehyde O-benzyl oxime], the pIC50 in assay [1] was 10.05; in assay [2] it was 10.00.
For `C[C@]12C[C@H](c3ccc(/C=N/OCc4ccc(Cl)c(Cl)c4)cc3)C3=C4CCC(=O)C=C4CC[C@H]3[C@@H]1CC[C@@]2(O)C(F)(F)C(F)(F)F` [Example 37, 4-((8S,11R,13S,14S,17S)-17-hydroxy-13-methyl-3-oxo-17-pentafluoroethyl-2,3,6,7,8,11,12,13,14,15,16,17-dodecahydro-1H-cyclopenta[a]phenanthren-11-yl)benzaldehyde O-(3,4-dichlorobenzyl)oxime] the same measures were 9.30 and 9.40.
`CC(C)CO/N=C/c1ccc([C@H]2C[C@@]3(C)[C@@H](CC[C@@]3(O)C(F)(F)C(F)(F)F)[C@@H]3CCC4=CC(=O)CCC4=C32)cc1` [Example 38, 4-((8S,11R,13S,14S,17S)-17-hydroxy-13-methyl-3-oxo-17-pentafluoroethyl-2,3,6,7,8,11,12,13,14,15,16,17-dodecahydro-1H-cyclopenta[a]phenanthren-11-yl)benzaldehyde O-isobutyl oxime]: the results for the pIC50 in assay [1] and in assay [2] were 10.00 and 10.05, respectively.
Regarding `CC(C)(C)NC(=O)NC/C=C/c1ccc([C@H]2C[C@@]3(C)C(CC[C@@]3(O)C(F)(F)C(F)(F)F)C3CCC4=CC(=O)CCC4=C32)cc1` (some centres unmarked) [Example 41], the pIC50 in assay [1] and in assay [2] was 10.00 throughout.
For `C[C@]12C[C@H](c3ccc(/C=C/CNC(=O)Nc4ccc(F)cc4)cc3)C3=C4CCC(=O)C=C4CC[C@H]3[C@@H]1CC[C@@]2(O)C(F)(F)C(F)(F)F` [Example 44, 1-(4-fluorophenyl)-3-{(E)-3-[4-((8S,11R,13S,14S,17S)-17-hydroxy-13-methyl-3-oxo-17-pentafluoroethyl-2,3,6,7,8,11,12,13,14,15,16,17-dodecahydro-1H-cyclopenta[a]phenanthren-11-yl)phenyl]allyl}urea], the pIC50 in assay [1] and in assay [2] was 10.00 in each case.
In the case of `Cc1ccc(NC(=O)NC/C=C/c2ccc([C@H]3C[C@@]4(C)[C@@H](CC[C@@]4(O)C(F)(F)C(F)(F)F)[C@@H]4CCC5=CC(=O)CCC5=C43)cc2)cc1` [Example 45, 1-{(E)-3-[4-((8S,11R,13S,14S,17S)-17-hydroxy-13-methyl-3-oxo-17-pentafluoroethyl-2,3,6,7,8,11,12,13,14,15,16,17-dodecahydro-1H-cyclopenta[a]phenanthren-11-yl)phenyl]allyl}-3-p-tolylurea], the pIC50 in assay [1] and in assay [2] was 10.00 each time.
As for `C[C@]12C[C@H](c3ccc(/C=C/CNC(=O)NCc4ccccc4)cc3)C3=C4CCC(=O)C=C4CC[C@H]3[C@@H]1CC[C@@]2(O)C(F)(F)C(F)(F)F` [Example 46, 1-benzyl-3-{(E)-3-[4-((8S,11R,13S,14S,17S)-17-hydroxy-13-methyl-3-oxo-17-pentafluoroethyl-2,3,6,7,8,11,12,13,14,15,16,17-dodecahydro-1H-cyclopenta[a]phenanthren-11-yl)phenyl]allyl}urea], the results for the pIC50 in assay [1] and in assay [2] were 10.05 and 10.15, respectively.
As for `CC(C)(C)c1ccc(NC(=O)NC/C=C/c2ccc([C@H]3C[C@@]4(C)C(CC[C@@]4(O)C(F)(F)C(F)(F)F)C4CCC5=CC(=O)CCC5=C43)cc2)cc1` (some centres unmarked) [Example 47], the pIC50 was 9.52 in assay [1] and 9.10 in assay [2].
